Data as given in patent US10087188B2, “Benzamide imidazopyrazine Btk inhibitors” (MERCK SHARP & DOHME CORP., priority 2014, dated 2018).
Read-outs that look alike come from different tables or passages of the source.

Columns and labels:
[1] = target: BTK enzyme (recombinant full-length BTK, hBTK) (Homo sapiens (Human), UniProt Q06187); assay: Btk enzyme activity assay, LANCE TR-FRET; format: biochemical; details: 50 pM hBTK, 2 μM biotin-A5-peptide, 25 μM ATP; 60 minute compound & enzyme incubation; read-out: BTK binding IC50
Protocol: Btk Enzyme Activity Assay Methods
BTK enzymatic activity was determined with the LANCE (Lanthanide Chelate Excite) TR-FRET (Time-resolved fluorescence resonance energy transfer) assay. […] After 60 minutes incubation with detection reagents, reaction plates were read on a PerkinElmer EnVision plate reader using standard TR-FRET protocol.

HeLa cells = assay: [3H] Adenosine uptake assay; format: cell-based; details: accumulation of tritiated adenosine into HeLa cells, compound concentration range 10 μM to 0.032 nM, read-out: ADU inhibition IC50 (adenosine uptake inhibition potency)
Summary of the method: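 Accumulation of tritiated adenosine in adherent HeLa cells, detected by scintillant-plate coincidence counting, gives IC50 via 4-parameter robust fit. Compound (constant 0.25% DMSO) applied 30 min ahead, then 60 min radiolabel exposure (added from 500 nM solution), ambient conditions, HBSS with 5% FBS.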

Sequence of BTK enzyme (recombinant full-length BTK, hBTK) (Q06187 whole entry): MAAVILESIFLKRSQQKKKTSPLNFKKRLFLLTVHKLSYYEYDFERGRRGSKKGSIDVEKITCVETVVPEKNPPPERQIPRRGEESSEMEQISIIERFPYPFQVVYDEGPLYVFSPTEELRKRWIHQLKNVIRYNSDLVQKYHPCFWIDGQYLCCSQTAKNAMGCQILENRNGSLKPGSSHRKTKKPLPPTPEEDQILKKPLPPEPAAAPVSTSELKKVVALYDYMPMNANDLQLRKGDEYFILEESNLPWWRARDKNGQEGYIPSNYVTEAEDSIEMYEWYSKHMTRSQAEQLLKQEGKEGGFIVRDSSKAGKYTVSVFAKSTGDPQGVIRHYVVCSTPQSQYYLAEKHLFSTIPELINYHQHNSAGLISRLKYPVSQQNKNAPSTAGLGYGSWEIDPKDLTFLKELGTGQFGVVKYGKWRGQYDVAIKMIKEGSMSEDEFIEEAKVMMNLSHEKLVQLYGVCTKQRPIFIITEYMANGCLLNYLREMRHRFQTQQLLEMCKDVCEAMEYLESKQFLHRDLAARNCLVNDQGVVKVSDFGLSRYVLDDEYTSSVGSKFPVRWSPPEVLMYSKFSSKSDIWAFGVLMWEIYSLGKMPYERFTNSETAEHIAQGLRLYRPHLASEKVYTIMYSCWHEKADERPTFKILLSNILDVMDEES

SMILES	IC50 [1] [nM]	IC50 (HeLa cells; Homo sapiens, HeLa) [µM]	IC50 (HeLa cells) [µM]
CCOc1cc(C(=O)Nc2cc(C(F)(F)F)ccn2)ccc1-c1nc(C23CCC(C(=O)O)(CC2)CC3)n2c(F)cnc(N)c12 [Example 173, 4-[8-amino-1-(2-ethoxy-4-{[4-(trifluoromethyl)pyridin-2-yl]carbamoyl}phenyl)-5-fluoroimidazo[1,5-a]pyrazin-3-yl]bicyclo[2.2.2] octane-1-carboxylic acid]	2	10	–
C[C@]1(C(=O)O)CC[C@H](N2CCO[C@@H](c3nc(-c4ccc(C(=O)Nc5cc(C(F)F)ccn5)cc4)c4c(N)ncc(Cl)n34)C2)CC1 [Example 195, trans-4-{(2R)-2-[8-amino-5-chloro-1-(4-{[4-(difluoromethyl)pyridin-2-yl]carbamoyl}phenyl)imidazo [1,5-a]pyrazin-3-yl]morpholin-4-yl}-1-methylcyclohexanecarboxylic acid]	1	2.44	–
CC(C)(C(=O)O)C1CCC(c2nc(-c3ccc(C(=O)Nc4cc(C(F)(F)F)ccn4)cc3)c3c(N)nccn23)C1 (stereo not drawn) [Example 97, 2-{3-[8-amino-1-(4-{[4-(trifluoromethyl)pyridin-2-yl]carbamoyl}phenyl)imidazo[1,5-a]pyrazin-3-yl]cyclopentyl}-2-methylpropanoic acid]	0.87	–	7.53
CCOc1cc(C(=O)Nc2cc(C(F)(F)F)ccn2)ccc1-c1nc([C@H]2CCC[C@](C(=O)O)(C(C)C)C2)n2ccnc(N)c12 [Example 90, (1R,3S)-3-[8-amino-1-(2-ethoxy-4-{[4-(trifluoromethyl)pyridin-2-yl]carbamoyl}phenyl)imidazo[1,5-a]pyrazin-3-yl]-1-(1-methylethyl) cyclohexane-carboxylic acid]	1.8	10	–
COc1cc(C(=O)Nc2cc(C(F)(F)F)ccn2)ccc1-c1nc([C@H]2CN(C3CCC(C)(C(=O)O)CC3)[C@@H](C)CO2)n2ccnc(N)c12 (stereo partly drawn) [Example 181, 4-{(2R,5S)-2-[8-amino-1-(2-methoxy-4-{[4-(trifluoromethyl)pyridin-2-yl]carbamoyl}phenyl)imidazo [1,5-a]pyrazin-3-yl]-5-methylmorpholin-4-yl}-1-methylcyclohexanecarboxylic acid]	1.8	2.33	–
CCOc1cc(C(=O)Nc2cc(C(F)(F)F)n(C)n2)ccc1-c1nc([C@@H]2CC[C@](C(=O)O)(C(C)C)C2)n2ccnc(N)c12 [Example 59, (1R,3R)-3-[8-amino-1-(2-ethoxy-4-{[1-methyl-5-(trifluoromethyl)-1H-pyrazol-3-yl]carbamoyl}phenyl)imidazo[1,5-a]pyrazin-3-yl]-1-(1-methylethyl) cyclopentane-carboxylic acid]	24.1	10	–
Nc1nccn2c(-c3ccc(C(=O)O)cc3)nc(-c3ccc(C(=O)Nc4cc(C(F)(F)F)ccn4)cc3)c12 [Example 26, 4-[8-amino-1-(4-{[4-(trifluoromethyl)pyridin-2-yl]carbamoyl}phenyl)imidazo[1,5-a]pyrazin-3-yl]benzoic acid]	0.97	5.58	–
C[C@@]1(C(=O)O)CCC[C@H](c2nc(-c3ccc(C(=O)Nc4cc(C5CC5)ccn4)cc3F)c3c(N)nccn23)C1 [Example 160, (1R,3S)-3-(8-amino-1-{4-[(4-cyclopropylpyridin-2-yl)carbamoyl]-2-fluorophenyl}imidazo [1,5-a]pyrazin-3-yl)-1-methylcyclohexane-carboxylic acid]	0.96	4.51	–
CC(C)(C(=O)O)N1CCC[C@@H](c2nc(-c3ccc(C(=O)Nc4cc(C(F)(F)F)ccn4)cc3F)c3c(N)nccn23)C1 [Example 186, 2-{(3R)-3-[8-amino-1-(2-fluoro-4-{[4-(trifluoromethyl)pyridin-2-yl]carbamoyl}phenyl)imidazo [1,5-a]pyrazin-3-yl]piperidin-1-yl}-2-methylpropanoic acid]	9.4	1.24	–
CC(C)[C@@]1(C(=O)O)CC[C@@H](N2C[C@H](c3nc(-c4ccc(C(=O)Nc5cc(C(F)(F)F)ccn5)cc4F)c4c(N)ncc(Cl)n34)OC[C@@H]2C)C1 [Example 202, (1R,3R)-3-{(2R,5S)-2-[8-amino-5-chloro-1-(2-fluoro-4-{[4-(trifluoromethyl)pyridin-2-yl]carbamoyl}phenyl)imidazo [1,5-a]pyrazin-3-yl]-5-methylmorpholin-4-yl}-1-(1-methylethyl) cyclopentanecarboxylic acid]	0.76	4.58	–
CCOc1cc(C(=O)Nc2cc(C(F)(F)F)ccn2)ccc1-c1nc([C@@H]2C[C@@H]3[C@H](C2)[C@H]3C(=O)O)n2ccnc(N)c12 [Example 135, (1R,3R,5S,6r)-3-[8-amino-1-(2-ethoxy-4-{[4-(trifluoromethyl)pyridin-2-yl]carbamoyl}phenyl)imidazo[1,5-a]pyrazin-3-yl]bicyclo[3.1.0] hexane-6-carboxylic acid]	0.43	6.79	–
C[C@H]1CO[C@@H](c2nc(-c3ccc(C(=O)Nc4cc(C(F)F)ccn4)cc3)c3c(N)ncc(Cl)n23)CN1[C@H]1CC[C@](C)(C(=O)O)CC1 [Example 205, trans-4-{(2R,5S)-2-[8-amino-5-chloro-1-(4-{[4-(difluoromethyl)pyridin-2-yl]carbamoyl}phenyl)imidazo [1,5-a]pyrazin-3-yl]-5-methylmorpholin-4-yl}-1-methylcyclohexanecarboxylic acid]	1.3	10	–

Continued by falling IC50 [1], values first:

IC50 [1] [nM]	IC50 (HeLa cells; Homo sapiens, HeLa) [µM]	IC50 (HeLa cells) [µM]	SMILES
5.2	2.98	–	CC1(C)[C@H](C(=O)O)CC[C@]1(C)c1nc(-c2ccc(C(=O)Nc3cc(C(F)(F)F)ccn3)cc2)c2c(N)nccn12 [Example 141, (1R,3S)-3-[8-amino-1-(4-{[4-(trifluoromethyl)pyridin-2-yl]carbamoyl}phenyl)imidazo[1,5-a]pyrazin-3-yl]-2,2,3-trimethylcyclopentane carboxylic acid]
4.4	10	–	CCOc1cc(C(=O)Nc2cc(C(F)(F)F)ccn2)ccc1-c1nc(C2CCC(C)(C(=O)O)CC2)n2c(Cl)cnc(N)c12 (stereo not drawn) [Example 165, 4-[8-amino-5-chloro-1-(2-ethoxy-4-{[4-(trifluoromethyl)pyridin-2-yl]carbamoyl}phenyl)imidazo[1,5-a]pyrazin-3-yl]-1-methylcyclohexane-carboxylic acid]
4.3	10	–	COc1cc(C(=O)Nc2cc(C(F)(F)F)ccn2)ccc1-c1nc(C2CCC(C)(C(=O)O)CC2)n2c(Cl)cnc(N)c12 (stereo not drawn) [Example 166, 4-[8-amino-5-chloro-1-(2-methoxy-4-{[4-(trifluoromethyl)pyridin-2-yl]carbamoyl}phenyl)imidazo[1,5-a]pyrazin-3-yl]-1-methylcyclohexane-carboxylic acid]
2.8	3.08	–	C[C@H]1CO[C@@H](c2nc(-c3ccc(C(=O)Nc4cc(C(F)(F)F)ccn4)cc3)c3c(N)nccn23)CN1[C@H]1CC[C@@](C)(C(=O)O)CC1 [Example 192, cis-4-{(2R,5S)-2-[8-amino-1-(4-{[4-(trifluoromethyl)pyridin-2-yl]carbamoyl}phenyl)imidazo [1,5-a]pyrazin-3-yl]-5-methylmorpholin-4-yl}-1-methylcyclohexanecarboxylic acid]
2.5	–	3.01	CC(C)C1(C(=O)O)CCC(C)(c2nc(-c3ccc(C(=O)Nc4cc(C(F)(F)F)ccn4)cc3)c3c(N)nccn23)C1 (stereo not drawn) [Example 144, 3-[8-amino-1-(4-{[4-(trifluoromethyl)pyridin-2-yl]carbamoyl}phenyl)imidazo[1,5-a]pyrazin-3-yl]-3-methyl-1-(1-methylethyl) cyclopentane-carboxylic acid]
1.3	10	–	CCOc1cc(C(=O)Nc2cc(C(F)(F)F)ccn2)cc(F)c1-c1nc([C@@H]2CC[C@](C)(C(=O)O)C2(C)C)n2c(F)cnc(N)c12 [Example 118, (1S,3R)-3-[8-amino-1-(2-ethoxy-6-fluoro-4-{[4-(trifluoromethyl)pyridin-2-yl]carbamoyl}phenyl)-5-fluoroimidazo[1,5-a]pyrazin-3-yl]-1,2,2-trimethylcyclopentane carboxylic acid]
0.72	–	4.01	CC(C)C1(C(=O)O)CCC(C)(c2nc(-c3ccc(C(=O)Nc4cc(C(F)(F)F)ccn4)cc3)c3c(N)nccn23)C1 (stereo not drawn) [Example 143, 3-[8-amino-1-(4-{[4-(trifluoromethyl)pyridin-2-yl]carbamoyl}phenyl)imidazo[1,5-a]pyrazin-3-yl]-3-methyl-1-(1-methylethyl)cyclopentane-carboxylic acid]
0.66	6.29	–	CCOc1cc(C(=O)Nc2cc(C(F)(F)F)ccn2)ccc1-c1nc(C2(C)CCC(C)(C(=O)O)C2)n2ccnc(N)c12 (stereo not drawn) [Example 22, 3-(8-amino-1-(2-ethoxy-4-((4-(trifluoromethyl)pyridin-2-yl)carbamoyl)phenyl)imidazo[1,5-a]pyrazin-3-yl)-1,3-dimethylcyclopentanecarboxylic acid]
0.41	4.19	–	CC(C)(C(=O)O)N1CC(=O)N2C[C@H](c3nc(-c4ccc(C(=O)Nc5cc(C(F)(F)F)ccn5)cc4)c4c(N)nccn34)CC[C@H]2C1 [Example 43, 2-{(7R,9aS)-7-[8-amino-1-(4-{[4-(trifluoromethyl)pyridin-2-yl]carbamoyl}phenyl)imidazo[1,5-a]pyrazin-3-yl]-4-oxooctahydro-2H-pyrido[1,2-a]pyrazin-2-yl}-2-methylpropanoic acid]
